This is an account of results in US20180252736A1, “CB2 RECEPTOR INTERNALIZATION” (Arena Pharmaceuticals, Inc., priority 2015, published 2018).

pEC50, pIC50: −log10 of the molar value. Where “and” joins values, the source holds several entries; their conditions need not be identical. Identical values can stand only once. A value given as a limit tells only on which side of the number the result lay.

The target in assay [1] is T1, CB1 (Homo sapiens, UniProt P21554). The experiment in a line: β-arrestin recruitment assay (PathHunter CHO-K1). It is filed as cell-based. In general terms: Recruitment of arrestin is a read-out of receptor activation apart from second messengers.
In the next assay the target is rat CB1 receptor (Rattus norvegicus, UniProt P20272). Briefly: β-arrestin recruitment assay (PathHunter CHO-K1). It counts as cell-based.
In a further assay the target is T2, mouse CB2 receptor (Mus musculus, UniProt P47936).
T2 construct: host or cells: PathHunter CHO-K1
Briefly: β-arrestin recruitment assay (PathHunter CHO-K1). It counts as cell-based. To be noted: for β-arrestin efficacy, mouse CB2: relative to reference agonist.

A further assay deals with mouse CB1 receptor (Mus musculus, UniProt P47746). Briefly: β-arrestin recruitment assay (PathHunter CHO-K1). It is filed as cell-based.
The target of assay [2] is T3, hCB2 (Homo sapiens, UniProt P34972). Briefly: CB2 receptor internalization assay (enzyme complementation). It is filed as cell-based. As to conditions: for receptor internalization, human CB2 (words): relative to CP55,940. As for the experimental part: (§1) Receptor internalization assays for the CB2 receptor were performed using the PathHunter® Total GPCR Internalization system from DiscoverRx (Fremont, Calif.). The assay was performed in CB2-receptor-expressing stable cell lines generated in the PathHunter® U2OS parental cell line.
(§2) Total GPCR internalization assays were performed per the manufacturer's instructions. Briefly, PathHunter® U2OS cells stably expressing the recombinant human or rat CB2 receptor were seeded into 96-well microtiter assay plates (Catalog #3610, Corning Inc., Corning, N.Y.) at a density of 20,000 cells per well in 100 μL growth medium and cultured in a humidified 37° C. incubator overnight. Growth medium was exchanged the following day for 100 μL serum-free medium (OptiMEM), and cells were incubated overnight in a humidified 37° C. incubator. On the day of the assay, test compounds dissolved in DMSO were serially diluted in DMSO and then further diluted in OptiMEM to achieve 11× concentrations in 5.5% DMSO. Aliquots (10 μL) of diluted test compounds were added to the assay plates, which were then incubated in a humidified 37° C. incubator for 3 hours. Lysis/detection reagents (55 μL total) were then added and the plates were incubated for an additional 1 hour at room temperature. Plates were then read on an appropriate plate reader (e.g., EnVision (Perkin Elmer, Waltham, Mass.) or PheraStar (BMG)). Dose-response curves were generated using a minimum of 8 different test concentrations and triplicate determinations were made at each test concentration. Assay performance was monitored by inclusion of a standard CB2 reference agonist such as CP55,940 and agonist internalization efficacies were reported relative to that of the reference agonist.

Assay [3] addresses T4, rat CB2 receptor (Rattus norvegicus, UniProt Q9QZN9).
T4 sequence (Q9QZN9 1-360): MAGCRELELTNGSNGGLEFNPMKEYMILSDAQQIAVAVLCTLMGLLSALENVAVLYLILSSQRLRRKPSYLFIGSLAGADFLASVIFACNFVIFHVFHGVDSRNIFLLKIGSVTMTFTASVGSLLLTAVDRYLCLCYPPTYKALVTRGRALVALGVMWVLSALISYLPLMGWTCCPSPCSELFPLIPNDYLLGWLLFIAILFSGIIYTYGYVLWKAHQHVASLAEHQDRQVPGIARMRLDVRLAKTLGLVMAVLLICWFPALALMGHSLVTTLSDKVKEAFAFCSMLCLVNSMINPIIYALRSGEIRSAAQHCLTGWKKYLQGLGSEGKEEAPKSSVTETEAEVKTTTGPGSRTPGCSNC
The description is as above. It is filed as cell-based. To be noted: relative to CP55,940. Here is the method:
as §1, §2

Assay [4] concerns human CB2 receptor versus human CB1 receptor. Briefly: CB2 receptor selectivity (ratio of EC50 values, β-arrestin data). It is filed as cell-based. From the text:
Competition curves were fit to a nonlinear least squares curve fitting program to obtain EC50 values for the β-arrestin data. Selectivity for the CB2 receptor versus the CB1 receptor was obtained by dividing the […].

Assay [5] concerns the target T3, hCB2. As to conditions: reported by Glenmark, cited from earlier work.
The target of assay [6] is T3, hCB2. The experiment in a line: β-arrestin recruitment assay (PathHunter CHO-K1). It is filed as cell-based. The arrangement: host or cells: PathHunter CHO-K1. As to conditions: for β-arrestin efficacy compared to CP55,940, human CB2: relative to CP55,940.
The target of assay [7] is T4, rat CB2 receptor. Briefly: β-arrestin recruitment assay (PathHunter CHO-K1). It is filed as cell-based. The arrangement: host or cells: PathHunter CHO-K1. As to conditions: for β-arrestin efficacy compared to CP55,940, rat CB2: relative to CP55,940.
In assay [8] the test system is MIA-induced osteoarthritis in male Sprague Dawley rats. The experiment in a line: Osteoarthritis pain model (MIA). It is filed as in vivo, rat. To be noted: for effect of CB1 antagonist on in vivo efficacy: pain model. From the text: Injection of monosodium iodoacetate (MIA) into a joint (J Rheumatol 14:130-1, 1987) inhibits the activity of glyceraldehyde-3-phosphate dehydrogenase in chondrocytes, resulting in disruption of glycolysis and eventually in cell death. The progressive loss of chondrocytes results in histological and morphological changes of the articular cartilage, closely resembling those seen in osteoarthritis patients.
Osteoarthritis was induced in 200 g male Sprague Dawley rats. After brief anesthesia by isoflurane, rats received a single intra-articular injection of MIA (2 mg) (Catalog #19148, Sigma Aldrich, Saint Louis, Mo.) dissolved in 0.9% sterile saline in a 50 μL volume administered through the patella ligament into the joint space of the left knee with a 30 G needle. Following injection, animals were allowed to recover from anesthesia before being returned to the main housing vivarium.
Typically during disease progression, there is an inflammation period of 0-7 days post-intra-articular injection followed by progressive degeneration of the cartilage and subchondral bone from days 14-55. Efficacy studies with a compound described herein took place from day 14 onwards and were performed twice a week with at least three days of wash-out in between each assay. Three different assays can be used to measure pain. Tactile allodynia can be measured via von Frey assay, hind limb paw weight distribution can be monitored using an incapacitance tester (Columbus Instruments, Columbus, Ohio), and hind limb grip strength can be measured using a grip strength meter (Columbus Instruments, Columbus, Ohio). Briefly, the von Frey assay was performed using the standard up/down method with von Frey filaments. Hind paw weight distribution was determined by placing rats in a chamber so that each hind paw rested on a separate force plate of the incapacitance tester. The force exerted by each hind limb (measured in grams) was averaged over a three second period. Three measurements are taken for each rat, and the change in hind paw weight distribution was calculated. Peak hind limb grip force was conducted by recoding the maximum compressive force exerted on the hind limb mesh gauge set on the grip strength meter. During testing, each rat was restrained and the paw of the injected knee was allowed to grip the mesh. The animal was then pulled in an upward motion until their grip was broken. Each rat was tested three times, with the contralateral paw used as a control.
A baseline was established for animals prior to administration of compounds. The MIA-treated groups of rats were then dosed with either vehicle (PEG400, orally), test compound (at 3 mg/kg, 10 mg/kg, and 30 mg/kg, orally), or morphine (3 mg/kg, subcutaneously). The dosing volume was 500 μL. One hour after dosing, von Frey assay, hind limb weight distribution and/or hind limb grip analysis was performed to measure the efficacy of the test compounds.

Assay [9] addresses T1, CB1. To be noted: concentrations less than 30 μM; reported by GSK; cited from earlier work.
In assay [10] the target is T3, hCB2. As to conditions: reported by Lilly; cited from earlier work.
For assay [11], the target named is T1, CB1. To be noted: at 100,000 nM; reported by Lilly; cited from earlier work.

T3 sequence (P34972 whole entry): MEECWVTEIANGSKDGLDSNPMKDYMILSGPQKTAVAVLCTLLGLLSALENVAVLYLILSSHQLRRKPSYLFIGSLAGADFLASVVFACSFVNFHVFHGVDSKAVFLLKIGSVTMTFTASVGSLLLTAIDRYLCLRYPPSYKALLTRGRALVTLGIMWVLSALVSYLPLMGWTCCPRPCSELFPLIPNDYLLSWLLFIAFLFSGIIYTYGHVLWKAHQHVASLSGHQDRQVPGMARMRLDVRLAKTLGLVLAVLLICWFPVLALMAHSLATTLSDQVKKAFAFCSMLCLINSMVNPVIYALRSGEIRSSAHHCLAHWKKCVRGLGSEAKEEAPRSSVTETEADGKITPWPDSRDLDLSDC
rat CB1 receptor, sequence (P20272 whole entry): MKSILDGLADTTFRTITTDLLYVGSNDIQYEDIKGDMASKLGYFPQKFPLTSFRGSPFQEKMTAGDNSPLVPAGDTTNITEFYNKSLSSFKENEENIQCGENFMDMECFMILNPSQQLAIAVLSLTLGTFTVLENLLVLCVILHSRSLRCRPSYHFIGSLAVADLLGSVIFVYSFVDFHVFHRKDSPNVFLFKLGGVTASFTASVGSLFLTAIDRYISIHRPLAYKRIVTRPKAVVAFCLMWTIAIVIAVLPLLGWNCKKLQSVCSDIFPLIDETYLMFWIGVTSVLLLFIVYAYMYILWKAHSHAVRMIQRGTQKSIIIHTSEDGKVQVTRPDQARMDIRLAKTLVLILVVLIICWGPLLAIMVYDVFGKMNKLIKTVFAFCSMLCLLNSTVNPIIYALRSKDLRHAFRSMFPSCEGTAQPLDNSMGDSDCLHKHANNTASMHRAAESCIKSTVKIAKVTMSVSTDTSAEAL
T1 sequence (P21554 whole entry): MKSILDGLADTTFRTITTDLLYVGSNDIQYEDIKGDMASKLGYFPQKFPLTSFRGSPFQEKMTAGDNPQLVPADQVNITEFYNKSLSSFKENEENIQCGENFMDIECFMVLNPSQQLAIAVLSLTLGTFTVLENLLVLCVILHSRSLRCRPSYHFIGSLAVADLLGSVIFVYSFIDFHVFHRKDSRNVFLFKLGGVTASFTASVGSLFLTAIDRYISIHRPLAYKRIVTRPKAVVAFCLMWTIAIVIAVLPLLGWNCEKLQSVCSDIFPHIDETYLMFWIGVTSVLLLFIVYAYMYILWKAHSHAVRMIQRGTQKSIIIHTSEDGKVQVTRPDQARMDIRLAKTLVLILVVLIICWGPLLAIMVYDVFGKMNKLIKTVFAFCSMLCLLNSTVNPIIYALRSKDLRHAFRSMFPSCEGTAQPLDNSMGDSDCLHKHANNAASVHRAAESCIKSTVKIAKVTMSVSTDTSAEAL
mouse CB1 receptor, sequence (P47746 whole entry): as the sequence (P20272 whole entry) above, with E95D counted along it
T2 sequence (P47936 whole entry): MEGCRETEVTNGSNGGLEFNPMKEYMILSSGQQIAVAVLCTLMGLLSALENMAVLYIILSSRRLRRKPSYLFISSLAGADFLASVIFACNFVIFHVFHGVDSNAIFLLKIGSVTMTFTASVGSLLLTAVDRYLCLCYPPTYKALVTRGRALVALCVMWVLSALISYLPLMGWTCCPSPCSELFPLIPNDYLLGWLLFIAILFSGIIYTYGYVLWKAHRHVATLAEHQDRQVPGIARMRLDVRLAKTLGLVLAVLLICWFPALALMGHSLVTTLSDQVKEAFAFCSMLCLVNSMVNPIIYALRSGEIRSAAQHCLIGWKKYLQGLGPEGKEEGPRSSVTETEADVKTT

On to `CC(C)(C)NC(=O)c1nn(-c2ccc(F)cc2F)c2c1C1CCC2C1` (stereo not drawn) [GRC 10693], for which the pEC50 is 6.42 at CB1 [1]; 6.54 on rat CB1 receptor; 9.10 on mouse CB2 receptor; 6.12 on mouse CB1 receptor; 8.92 on hCB2 [6]; 8.70 at rat CB2 receptor [7]. For the same compound, the “β-arrestin efficacy, human CB1” value at CB1 [1] (relative to reference agonist) stood at 57%. The “β-arrestin efficacy, rat CB1” value on rat CB1 receptor (relative to reference agonist) amounted to 57%. Besides, the “β-arrestin efficacy, mouse CB2” value on mouse CB2 receptor stood at 96%. Moreover, the “β-arrestin efficacy, mouse CB1” value at mouse CB1 receptor (relative to reference agonist) is 75%. The “receptor internalization, human CB2 (words)” value at hCB2 [2] is “high efficacy”. For the same compound, the “receptor internalization, rat CB2” value at rat CB2 receptor [3] is on record as “high efficacy”. The “selectivity for the human CB2 receptor versus the human CB1 receptor” value in [4] worked out at 320 fold. Further, at hCB2 [5], the “selectivity compared to the CB1 receptor using cAMP assays” value is recorded as “greater than 4700 fold”. Besides, the pIC50 at hCB2 [5] (read-out: functional IC50 for the human CB2 receptor) was 8.68. The “β-arrestin efficacy compared to CP55,940, human CB2” value on hCB2 [6] turned out to be 100%. The “β-arrestin efficacy compared to CP55,940, rat CB2” value on rat CB2 receptor [7] is reported as 89%.
`O=C(NCC1CCOCC1)c1cnc(Nc2ccc(Cl)cc2Cl)nc1C(F)(F)F` [GW842166X]: the negative logarithm of the EC50 (pEC50) at CB1 [1] was less than 5.00; on rat CB1 receptor it was less than 5.00; on mouse CB2 receptor, 6.63; on mouse CB1 receptor, less than 5.00; on hCB2 [6], 6.08; on rat CB2 receptor [7] it was 6.37. Moreover, at mouse CB2 receptor, the “β-arrestin efficacy, mouse CB2” value is given as 108%. Also, the “total granule intensity compared to CP55,940, human CB2 receptor internalization” value at hCB2 [2] is recorded as 53%. Also, the “receptor internalization, human CB2 (words)” value is listed as “weak receptor internalization” at hCB2 [2] and “weak CB2 receptor internalization” on hCB2 [2] (listed as GW842166). The “in vivo efficacy over time in the osteoarthritis pain model” value in assay [8] (oral dosing) is “limited efficacy”. Besides, the “effect of CB1 antagonist on in vivo efficacy” value in assay [8] is on record as “blocked by CB1 antagonists”; in [8] (listed as GW842166) it was “blocked by a CB1 antagonist”. The CB1 activity result on CB1 [9] is on record as “absence of CB1 activity”. Moreover, the “β-arrestin efficacy compared to CP55,940, human CB2” value at hCB2 [6] is reported as 99%. Besides, the “β-arrestin efficacy compared to CP55,940, rat CB2” value on rat CB2 receptor [7] came to 97%.
For the compound `Cc1nc(N2CCN(C)CC2)c2nc(-c3ccccc3Cl)n(C3CCOCC3)c2n1` [LY2828360], the pIC50 was 7.25 at mouse CB2 receptor (antagonist activity, read-out: β-arrestin potency, mouse CB2 (* indicates antagonist activity)) and 6.00 at mouse CB1 receptor (antagonist activity, read-out: β-arrestin potency, mouse CB1 (* indicates antagonist activity)). The “GTPγS35 stimulation in vitro efficacy, hCB2” value on hCB2 [10] was 87% and 87 ± 2%. Moreover, at CB1 [11], the “GTPγS35 stimulation efficacy, hCB1” value is reported as 15 ± 7% at 100,000 nM. Also, at hCB2 [6], the “β-arrestin efficacy compared to CP55,940, human CB2” value is recorded as 41%. Besides, the “agonist activity in β-arrestin assay, rat CB2” value on rat CB2 receptor [7] (compared to CP55,940) is “absence of agonist activity”.

For orientation: pEC50 means the EC50 on a negative log10 scale, so that one unit is a factor of ten.
